Measured values reported in patent publication US11752180B2, “Intestinal protectant” (National University Corporation Asahikawa Medical University, priority 2010, dated 2023).
Where no end group is shown, it is not given here.

Test system: integrin (integrin β)
Assay: Interaction between polyphosphoric acid and integrin: mannitol ex vivo loop assay with peptide antagonist of integrin
Design: species or system mouse
Method: Using a peptide antagonist of integrin, the interaction between polyphosphoric acid and integrin was analyzed. For the peptide antagonist of integrin, the peptide having the amino acid sequence of Gly-Arg-Gly-Asp-Thr-Pro (GRGDTP) (hereinafter also referred to as “GRGDTP”) was used. GRGDTP has the sequence of Arg-Gly-Asp (RGD), which is recognized by integrin β.
The intestinal tract permeability experiment on mannitol by ex vivo loop assay was carried out in the same manner as in Example 9 and Example 11 except that GRGDTP was added in a concentration of 100 μg/ml, in addition to the enzymatically synthesized polyphosphoric acid or the chemically synthesized polyphosphoric acid, to the PBS solution to be filled in the intestinal tract, and the intestinal tract barrier function was evaluated.

## GRGDTP [peptide antagonist of integrin]
GRGDTP 100 μg/ml in combination with chemically synthesized polyphosphoric acid
  effect of GRGDTP on the intestinal tract barrier effect of chemically synthesized polyphosphoric acid (mannitol leakage): had the same result
GRGDTP 100 μg/ml in combination with enzymatically synthesized polyphosphoric acid
  effect of GRGDTP on the intestinal tract barrier effect of enzymatically synthesized polyphosphoric acid (mannitol leakage): remarkably inhibited
